Laboratory results published in patent publication US20090312380A1, “NOVEL COMPOSITIONS AND METHODS” (priority 2006, published 2009).

Legend:
Format in all cases: physicochemical
[1] = Powder dissolution in 0.1N HCl (37° C.); conditions: for dissolution characteristics: 0.1N HCl, 37° C., FIG. 4, compared with samples B and C; for dissolution kinetics: in the media, FIGS. 4 and 5
Experimental: FIG. 4: Powder dissolution profiles in 0.1N HCl (37° C.) of samples of irbesartan. Dissolution experiments were executed in 0.1N HCt (37° C.) on the four micronised samples A-D of irbesartan. […] Thus with all other parameters being equal, it can be seen that the improved dissolution profile directly correlates to the increased water surface area of samples A and D.

[2] = Water surface area from GVS data, Excess Surface Work (ESW) model; conditions: for Water Surface Area (WSA): ESW adsorption model, GVS adsorption runs
Experimental: The xy-data pairs used for the sorption isotherms (mRH, RH-levels) can also be used for a different approach to describe the sorption isotherm. Here, the change in chemical potential Δμ for the sorption process at each relative humidity (and at temperature T) is calculated:
with: R=Universal Gas Constant • T=Temperature • p=water partial pressure at humidity RH and temperature T • ps=water vapour saturation pressure at temperature T
Based on the change in chemical potential Δμ, an energetic term φ can be calculated for each relative humidity, termed excess surface work (ESW) according to J. Adolphs and M. J. Setzer, Journal of Colloid and Interface Science, vol. 180, pp. 70-76, 1996:
with: Φ=excess surface work • Δμ=change in chemical potential • nads=number of moles of water adsorbed in equilibrium at humidity RH
A plot of Φ/RT vs. nads can then be generated, to allow the value of nads at the minimum value of Φ/RT to be deduced. This value of nads corresponds to nmono.
(§1) The calculated monolayer coverage nmono obtained from the application of the gas sorption models to GVS data can be re-calculated to water surface area Awater, taking into account the mean cross sectional area aH2O occupied by one water molecule upon adsorption:
(§2) with: Awater=water surface area [m^2/g] • aH2O mean cross sectional area of one water molecule adsorbed 10^−19 m^2/molecule • nmono=apparent amount adsorbed in the monolayer [mol] • NL=Lochschmidt number=6×10^23 molecules/mol • mdry (sample)=dry mass of sample [g]
Likewise, the determination of the ESW water surface area is illustrated for sample A as follows.
A plot of Φ/RT versus the change in mass for sample A was then generated (see FIG. 3). From this, it could be deduced that the minimum value of Φ/RT corresponded to a change in mass of 0.0369 mg, the apparent monolayer amount. This is turn equated to a WSA of 6.65 m^2/g, using equation (A4) above, wherein mdry=18.57 mg.

[3] = Water surface area from GVS data, BET model; conditions: for Water Surface Area (WSA): BET adsorption model, GVS adsorption runs; for water surface area (ranking): Table 6, compared to samples B or C; for surface hydrophilicity group predicted from the WSA data: WSA data of Table 6 (ESW and BET); for number of hydrophilic domains: from ESW and BET water surface areas and GVS results; for WSA compared with SSA: water surface area versus specific surface area (nitrogen)
From the text: The multilayer sorption model according to Brunauer, Emmet and Teller Journal of the American Chemical Society, vol. 60, pp. 309, 1938) is described as follows:
with: n=number of moles adsorbed at p/p, (=RH/100) • nmono=apparent number of moles adsorbed in monolayer • p/ps=gas partial pressure (=RH/100 in the GVS experiments) • C=BET constant (measure for the strength of the sorption interaction)
From the sorption kinetics, the equilibrium weight changes at the end of each RH stage are extracted to compile xy-data pairs (RH vs. adsorbed amount).
From this, a plot of [p/ps]/[n(1−p/ps)] versus p/ps should give a linear correlation with intercept b=1/[C(nmono)] and slope m=b(C−1).
Evaluation is done by using 5-7 data points (RH vs. adsorbed amount) in the RH range 5-30% RH, which are then used for linear regression to obtain the intercept b and slope m (as explained above). The data is considered acceptable, if the correlation coefficient (r^2) of the linear regression is >0.95, although a correlation coefficient of ≧0.99 should be obtainable for most data sets. From slope and intercept, one can calculate the BET constant C and apparent monolayer amount nmono.
as §1, §2
The determination of the BET water surface area is illustrated for sample A as follows. From the relative humidity data and the mass difference, p/ps and [p/ps]/[n(1−p/ps)] were calculated to give the values shown in Table 4.
A plot of p/ps versus [p/ps]/[n(1−p/ps)] was then generated (see FIG. 2) allowing the slope (m=26.726) and the intercept (b=3.8219) to be calculated. Using the equations b=1/[C(nmono)] and m=b(C−1), the apparent monolayer amount, n^mono, was calculated to equate to 0.0327 mg. This in turn led to a WSA of 5.9 m^2/g, using equation (A4) above, wherein mdry=18.57 mg.

Compound	dissolution characteristics [1]	dissolution kinetics [1]	Water Surface Area (WSA) [2]	Water Surface Area (WSA) ([2]; listed as sample A)	apparent monolayer amount (change in mass at minimum of Φ/RT) ([2]; ESW model, mdry=18.57 mg)	Water Surface Area (WSA) [3]	Water Surface Area (WSA) ([3]; listed as sample A)	apparent monolayer amount nmono ([3]; BET model, mdry=18.57 mg)	water surface area (ranking) [3]	surface hydrophilicity group predicted from the WSA data [3]	number of hydrophilic domains [3]	WSA compared with SSA [3]	dissolution profile ([1]; compared with samples A and D)
CCCCC1=NC2(CCCC2)C(=O)N1Cc1ccc(-c2ccccc2-c2nnn[nH]2)cc1 [Sample A, irbesartan]	enhanced dissolution characteristics	significantly faster dissolution kinetics	6.7 m^2/g	6.65 m^2/g	0.0369 mg	5.9 m^2/g	5.9 m^2/g	0.0327 mg	largest water surface areas	relatively hydrophilic	approximately twice the number of hydrophilic domains	greater than the SSA	–
CCCCC1=NC2(CCCC2)C(=O)N1Cc1ccc(-c2ccccc2-c2nnn[nH]2)cc1 [Sample B, irbesartan]	–	–	3.0 m^2/g	–	–	3.2 m^2/g	–	–	–	relatively hydrophobic	approximately a similar number of hydrophilic domains as each other	–	significantly poorer dissolution profile
CCCCC1=NC2(CCCC2)C(=O)N1Cc1ccc(-c2ccccc2-c2nnn[nH]2)cc1 [Sample C, irbesartan]	–	–	4.3 m^2/g	–	–	3.6 m^2/g	–	–	–	relatively hydrophobic	approximately a similar number of hydrophilic domains as each other	greater than the SSA	–
CCCCC1=NC2(CCCC2)C(=O)N1Cc1ccc(-c2ccccc2-c2nnn[nH]2)cc1 [Sample D, irbesartan]	enhanced dissolution characteristics	significantly faster dissolution kinetics	6.5 m^2/g	–	–	6.5 m^2/g	–	–	largest water surface areas	relatively hydrophilic	approximately twice the number of hydrophilic domains	greater than the SSA	–
